The numbers were not newly measured in patent US7163959B2, “Prostagladin derivatives for the treatment of glaucoma or ocular hypertension” (priority 1990, dated 2007), which cites them from elsewhere.

One data set has as its system monkey. The note with it: compounds or their esters, Bito et al, 1989; cited from earlier work.
The subject of the next data set is man. The note with it: clinical studies, Flach and Eliason (1988); cited from earlier work.

Each structure is given as a SMILES string.

Regarding `CCCCC[C@H](O)/C=C/[C@H]1[C@H](O)CC(=O)[C@@H]1C/C=C\CCCC(=O)O` [PGE2], the figures for the “IOP effect, in words” value in the data set with monkey and with man were “lower IOP” and “IOP-lowering effect”, respectively. Regarding `CCCCC[C@H](O)/C=C/[C@H]1C=CC(=O)[C@@H]1C/C=C\CCCC(=O)O` [PGA2], the “IOP effect, in words” value with monkey is “lower IOP”.
